In the supplement of paper PMC8149375:
Values belong to the compound of their own block, whether it stands above or below them.

How the values were obtained:
Conditions in all cases: treatment: drug + dasatinib (fixed dose, not stated); 5 days
UO-31 [1] = experiment: minimum viability across doses, drug + dasatinib, relative to DMSO (fraction); higher = less growth inhibition
Procedure: (§1)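 Primary HTS combination arm: 8 RCC cell lines treated with 8 doses (up to 10 uM) of each library drug plus a fixed dose of dasatinib (dose not stated) for 5 days; viability read by CellTiter-Glo and normalised to DMSO. GI50 was fitted with XLfit, AUC is the area under the dose-response curve, and minimum viability is the lowest fraction of DMSO viability across doses.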

SN12C [2] = experiment: as above
Procedure: as §1

CAKI-1 [3] = experiment: as above
Procedure: as §1

TK-10 [4] = experiment: as above
Procedure: as §1

ACHN [5] = experiment: as above
Procedure: as §1

A498 [6] = experiment: as above
Procedure: as §1

769-P [7] = experiment: as above
Procedure: as §1

786-O [8] = experiment: as above
Procedure: as §1

UO-31 [9] = experiment: AUC of dose-response viability curve, drug + dasatinib, normalised to DMSO (arbitrary (AUC of normalised viability)); higher = less growth inhibition
Procedure: as §1

SN12C [10] = experiment: as above
Procedure: as §1

CAKI-1 [11] = experiment: as above
Procedure: as §1

TK-10 [12] = experiment: as above
Procedure: as §1

ACHN [13] = experiment: as above
Procedure: as §1

A498 [14] = experiment: as above
Procedure: as §1

769-P [15] = experiment: as above
Procedure: as §1

786-O [16] = experiment: as above
Procedure: as §1

UO-31 [17] = experiment: GI50 of drug in presence of dasatinib; higher = less potent
Procedure: as §1

SN12C [18] = experiment: as above
Procedure: as §1

CAKI-1 [19] = experiment: as above
Procedure: as §1

TK-10 [20] = experiment: as above
Procedure: as §1

ACHN [21] = experiment: as above
Procedure: as §1

A498 [22] = experiment: as above
Procedure: as §1

769-P [23] = experiment: as above
Procedure: as §1

786-O [24] = experiment: as above
Procedure: as §1

Structure (SMILES): Oc1cccc(-c2nc(N3CCOCC3)c3oc4ncccc4c3n2)c1 [PI-103] + Cc1nc(Nc2ncc(C(=O)Nc3c(C)cccc3Cl)s2)cc(N2CCN(CCO)CC2)n1 [dasatinib]
minimum viability across doses (UO-31 [1]): 0.00638
minimum viability across doses (SN12C [2]): 0.116
minimum viability across doses (CAKI-1 [3]): 0.0121
minimum viability across doses (TK-10 [4]): 0.0871
minimum viability across doses (ACHN [5]): 0.0522
minimum viability across doses (A498 [6]): 0.111
minimum viability across doses (769-P [7]): 0.0372
minimum viability across doses (786-O [8]): 0.0069
AUC of dose-response viability curve (UO-31 [9]): 1.49
AUC of dose-response viability curve (SN12C [10]): 1.57
AUC of dose-response viability curve (CAKI-1 [11]): 1.63
AUC of dose-response viability curve (TK-10 [12]): 1.86
AUC of dose-response viability curve (ACHN [13]): 1.2
AUC of dose-response viability curve (A498 [14]): 2.06
AUC of dose-response viability curve (769-P [15]): 1.84
AUC of dose-response viability curve (786-O [16]): 1.43
GI50 of drug (UO-31 [17]): 115 nM
GI50 of drug (SN12C [18]): 156 nM
GI50 of drug (CAKI-1 [19]): 322 nM
GI50 of drug (TK-10 [20]): 389 nM
GI50 of drug (ACHN [21]): 31.4 nM
GI50 of drug (A498 [22]): 386 nM
GI50 of drug (769-P [23]): 461 nM
GI50 of drug (786-O [24]): 73.1 nM

Structure (SMILES): Cc1ccccc1-n1c(Cn2ncc3c(N)ncnc32)nc2cccc(C)c2c1=O [PIK-293] + Cc1nc(Nc2ncc(C(=O)Nc3c(C)cccc3Cl)s2)cc(N2CCN(CCO)CC2)n1 [dasatinib]
minimum viability across doses (UO-31 [1]): 1.15
minimum viability across doses (SN12C [2]): 0.666
minimum viability across doses (CAKI-1 [3]): 0.655
minimum viability across doses (TK-10 [4]): 0.66
minimum viability across doses (ACHN [5]): 0.539
minimum viability across doses (A498 [6]): 0.782
minimum viability across doses (769-P [7]): 0.685
minimum viability across doses (786-O [8]): 0.6
AUC of dose-response viability curve (UO-31 [9]): 4.4
AUC of dose-response viability curve (SN12C [10]): 2.43
AUC of dose-response viability curve (CAKI-1 [11]): 2.38
AUC of dose-response viability curve (TK-10 [12]): 2.47
AUC of dose-response viability curve (ACHN [13]): 2.17
AUC of dose-response viability curve (A498 [14]): 3.17
AUC of dose-response viability curve (769-P [15]): 2.55
AUC of dose-response viability curve (786-O [16]): 2.24
GI50 of drug (UO-31 [17]): > 10000 nM
GI50 of drug (SN12C [18]): > 10000 nM
GI50 of drug (CAKI-1 [19]): > 10000 nM
GI50 of drug (TK-10 [20]): > 10000 nM
GI50 of drug (ACHN [21]): 2540 nM
GI50 of drug (A498 [22]): > 10000 nM
GI50 of drug (769-P [23]): > 10000 nM
GI50 of drug (786-O [24]): > 10000 nM

Structure (SMILES): CCn1nnc2c(N3CCOCC3)nc(-c3ccc(NC(=O)Nc4ccc(C(=O)N5CCN(C)CC5)cc4)cc3)nc21 [PKI-402] + Cc1nc(Nc2ncc(C(=O)Nc3c(C)cccc3Cl)s2)cc(N2CCN(CCO)CC2)n1 [dasatinib]
minimum viability across doses (UO-31 [1]): 0.00734
minimum viability across doses (SN12C [2]): 0.0929
minimum viability across doses (CAKI-1 [3]): 0.0314
minimum viability across doses (TK-10 [4]): 0.0238
minimum viability across doses (ACHN [5]): 0.0465
minimum viability across doses (A498 [6]): 0.148
minimum viability across doses (769-P [7]): 0.0547
minimum viability across doses (786-O [8]): 0.00332
AUC of dose-response viability curve (UO-31 [9]): 2.39
AUC of dose-response viability curve (SN12C [10]): 1.19
AUC of dose-response viability curve (CAKI-1 [11]): 1.48
AUC of dose-response viability curve (TK-10 [12]): 1.55
AUC of dose-response viability curve (ACHN [13]): 1.25
AUC of dose-response viability curve (A498 [14]): 1.66
AUC of dose-response viability curve (769-P [15]): 1.86
AUC of dose-response viability curve (786-O [16]): 1.41
GI50 of drug (UO-31 [17]): 350 nM
GI50 of drug (SN12C [18]): 41.6 nM
GI50 of drug (CAKI-1 [19]): 122 nM
GI50 of drug (TK-10 [20]): 117 nM
GI50 of drug (ACHN [21]): 82.8 nM
GI50 of drug (A498 [22]): 87.5 nM
GI50 of drug (769-P [23]): 450 nM
GI50 of drug (786-O [24]): 98 nM

The next lines start with results.

GI50 of drug (ACHN [21]): 7.83 nM
GI50 of drug (786-O [24]): 30.3 nM
Structure (SMILES): Cc1ccc([N+](=O)[O-])cc1S(=O)(=O)N(C)/N=C/c1cnc2ccc(Br)cn12.Cl [PIK-75] + Cc1nc(Nc2ncc(C(=O)Nc3c(C)cccc3Cl)s2)cc(N2CCN(CCO)CC2)n1 [dasatinib]
minimum viability across doses (UO-31 [1]): 0.00696
minimum viability across doses (SN12C [2]): 0.00539
minimum viability across doses (CAKI-1 [3]): 0.0337
minimum viability across doses (TK-10 [4]): 0.124
minimum viability across doses (ACHN [5]): 0.00364
minimum viability across doses (A498 [6]): 0.00818
minimum viability across doses (769-P [7]): 0.00622
minimum viability across doses (786-O [8]): 0.00381
AUC of dose-response viability curve (UO-31 [9]): 1.22
AUC of dose-response viability curve (SN12C [10]): 1.07
AUC of dose-response viability curve (CAKI-1 [11]): 0.683
AUC of dose-response viability curve (TK-10 [12]): 1.4
AUC of dose-response viability curve (ACHN [13]): 0.571
AUC of dose-response viability curve (A498 [14]): 1.29
AUC of dose-response viability curve (769-P [15]): 1.11
AUC of dose-response viability curve (786-O [16]): 0.918
GI50 of drug (UO-31 [17]): 43 nM
GI50 of drug (SN12C [18]): 57.7 nM
GI50 of drug (CAKI-1 [19]): 7.8 nM
GI50 of drug (TK-10 [20]): 45.1 nM
GI50 of drug (A498 [22]): 65.6 nM
GI50 of drug (769-P [23]): 47.6 nM

GI50 of drug (ACHN [21]): 976 nM
GI50 of drug (786-O [24]): 135 nM
Structure (SMILES): CC(=O)Nc1nc(C)c(-c2ccc(Cl)c(S(=O)(=O)NCCO)c2)s1 [PIK-93] + Cc1nc(Nc2ncc(C(=O)Nc3c(C)cccc3Cl)s2)cc(N2CCN(CCO)CC2)n1 [dasatinib]
minimum viability across doses (UO-31 [1]): 0.0793
minimum viability across doses (SN12C [2]): 0.259
minimum viability across doses (CAKI-1 [3]): 0.068
minimum viability across doses (TK-10 [4]): 0.251
minimum viability across doses (ACHN [5]): 0.188
minimum viability across doses (A498 [6]): 0.476
minimum viability across doses (769-P [7]): 0.352
minimum viability across doses (786-O [8]): 0.127
AUC of dose-response viability curve (UO-31 [9]): 3.76
AUC of dose-response viability curve (SN12C [10]): 2.14
AUC of dose-response viability curve (CAKI-1 [11]): 2.05
AUC of dose-response viability curve (TK-10 [12]): 2.31
AUC of dose-response viability curve (ACHN [13]): 1.75
AUC of dose-response viability curve (A498 [14]): 3.29
AUC of dose-response viability curve (769-P [15]): 2.31
AUC of dose-response viability curve (786-O [16]): 1.49
GI50 of drug (UO-31 [17]): 4320 nM
GI50 of drug (SN12C [18]): 1890 nM
GI50 of drug (CAKI-1 [19]): 1170 nM
GI50 of drug (TK-10 [20]): 3690 nM
GI50 of drug (A498 [22]): 8110 nM
GI50 of drug (769-P [23]): 4000 nM

GI50 of drug (ACHN [21]): 1070 nM
GI50 of drug (786-O [24]): 2740 nM
Structure (SMILES): CCCS(=O)(=O)Nc1ccc(F)c(C(=O)c2c[nH]c3ncc(Cl)cc23)c1F [PLX-4720] + Cc1nc(Nc2ncc(C(=O)Nc3c(C)cccc3Cl)s2)cc(N2CCN(CCO)CC2)n1 [dasatinib]
minimum viability across doses (UO-31 [1]): 0.806
minimum viability across doses (SN12C [2]): 0.679
minimum viability across doses (CAKI-1 [3]): 0.0731
minimum viability across doses (TK-10 [4]): 0.361
minimum viability across doses (ACHN [5]): 0.127
minimum viability across doses (A498 [6]): 0.765
minimum viability across doses (769-P [7]): 0.641
minimum viability across doses (786-O [8]): 0.212
AUC of dose-response viability curve (UO-31 [9]): 3.22
AUC of dose-response viability curve (SN12C [10]): 2.47
AUC of dose-response viability curve (CAKI-1 [11]): 2.08
AUC of dose-response viability curve (TK-10 [12]): 2.44
AUC of dose-response viability curve (ACHN [13]): 1.93
AUC of dose-response viability curve (A498 [14]): 3
AUC of dose-response viability curve (769-P [15]): 2.48
AUC of dose-response viability curve (786-O [16]): 2.13
GI50 of drug (UO-31 [17]): > 10000 nM
GI50 of drug (SN12C [18]): > 10000 nM
GI50 of drug (CAKI-1 [19]): 1700 nM
GI50 of drug (TK-10 [20]): 5470 nM
GI50 of drug (A498 [22]): > 10000 nM
GI50 of drug (769-P [23]): > 10000 nM

GI50 of drug (ACHN [21]): 24.5 nM
GI50 of drug (786-O [24]): 713 nM
Structure (SMILES): CC(C)n1nc(-c2cc3cc(O)ccc3[nH]2)c2c(N)ncnc21 [PP242] + Cc1nc(Nc2ncc(C(=O)Nc3c(C)cccc3Cl)s2)cc(N2CCN(CCO)CC2)n1 [dasatinib]
minimum viability across doses (UO-31 [1]): 0.00386
minimum viability across doses (SN12C [2]): 0.0689
minimum viability across doses (CAKI-1 [3]): 0.0342
minimum viability across doses (TK-10 [4]): 0.0716
minimum viability across doses (ACHN [5]): 0.0314
minimum viability across doses (A498 [6]): 0.152
minimum viability across doses (769-P [7]): 0.0492
minimum viability across doses (786-O [8]): 0.00231
AUC of dose-response viability curve (UO-31 [9]): 2.82
AUC of dose-response viability curve (SN12C [10]): 1.74
AUC of dose-response viability curve (CAKI-1 [11]): 1.51
AUC of dose-response viability curve (TK-10 [12]): 1.86
AUC of dose-response viability curve (ACHN [13]): 1.19
AUC of dose-response viability curve (A498 [14]): 2.41
AUC of dose-response viability curve (769-P [15]): 1.86
AUC of dose-response viability curve (786-O [16]): 1.74
GI50 of drug (UO-31 [17]): 1140 nM
GI50 of drug (SN12C [18]): 357 nM
GI50 of drug (CAKI-1 [19]): 158 nM
GI50 of drug (TK-10 [20]): 253 nM
GI50 of drug (A498 [22]): 1350 nM
GI50 of drug (769-P [23]): 401 nM
